PubChem BioAssay (NCI)
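Five compound concentrations were applied to cells in 96-well plates for 48 hours; endpoints were derived by simple linear interpolation of the resulting dose-response curve. TGI: concentration producing complete growth inhibition.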

Key:
Assay in all cases: NCI-60 cell line screen, 48 h
COLO 205 colon = test system: COLO 205 colon
ACHN renal = test system: ACHN renal
SN12C renal = test system: SN12C renal
OVCAR-3 ovarian = test system: OVCAR-3 ovarian
UO-31 renal = test system: UO-31 renal
UACC-257 melanoma = test system: UACC-257 melanoma
LOX IMVI melanoma = test system: LOX IMVI melanoma
SF-295 CNS = test system: SF-295 CNS
NCI-H460 lung = test system: NCI-H460 lung
SNB-19 CNS = test system: SNB-19 CNS
A549 NSCLC = test system: A549 NSCLC
SK-MEL-28 melanoma = test system: SK-MEL-28 melanoma
HT29 colon = test system: HT29 colon
M14 melanoma = test system: M14 melanoma
SF-268 CNS = test system: SF-268 CNS
SK-MEL-5 melanoma = test system: SK-MEL-5 melanoma
IGROV1 ovarian = test system: IGROV1 ovarian
KM12 colon = test system: KM12 colon
DMS 273 small cell lung = test system: DMS 273 small cell lung
SF-539 CNS = test system: SF-539 CNS
HOP-62 NSCLC = test system: HOP-62 NSCLC
OVCAR-5 ovarian = test system: OVCAR-5 ovarian
M19-MEL melanoma = test system: M19-MEL melanoma
CAKI-1 renal = test system: CAKI-1 renal
NCI-H226 lung = test system: NCI-H226 lung
RPMI-8226 leukemia = test system: RPMI-8226 leukemia
OVCAR-4 ovarian = test system: OVCAR-4 ovarian
HCT-116 colon = test system: HCT-116 colon
TK-10 renal = test system: TK-10 renal
MALME-3M melanoma = test system: MALME-3M melanoma
SK-MEL-2 melanoma = test system: SK-MEL-2 melanoma
DLD-1 colon = test system: DLD-1 colon
HCC-2998 colon = test system: HCC-2998 colon
EKVX NSCLC = test system: EKVX NSCLC
XF 498 CNS = test system: XF 498 CNS
SNB-78 CNS = test system: SNB-78 CNS
RXF 393 renal = test system: RXF 393 renal
NCI-H23 lung = test system: NCI-H23 lung
DMS 114 small cell lung = test system: DMS 114 small cell lung
OVCAR-8 ovarian = test system: OVCAR-8 ovarian
U251 CNS = test system: U251 CNS
HCT-15 colon = test system: HCT-15 colon
SNB-75 CNS = test system: SNB-75 CNS
HL-60(TB) leukemia = test system: HL-60(TB) leukemia
SW-620 colon = test system: SW-620 colon
SR leukemia = test system: SR leukemia
786-0 renal = test system: 786-0 renal
A498 renal = test system: A498 renal
K-562 leukemia = test system: K-562 leukemia
MOLT-4 leukemia = test system: MOLT-4 leukemia
SK-OV-3 ovarian = test system: SK-OV-3 ovarian
KM20L2 colon = test system: KM20L2 colon
UACC-62 melanoma = test system: UACC-62 melanoma
NCI-H522 lung = test system: NCI-H522 lung
LXFL 529 NSCLC = test system: LXFL 529 NSCLC
HOP-18 NSCLC = test system: HOP-18 NSCLC
HOP-92 NSCLC = test system: HOP-92 NSCLC
CCRF-CEM leukemia = test system: CCRF-CEM leukemia

## Cn1c2ccccc2n2c(=O)c3c(c(C#N)c12)CCCC3
COLO 205 colon
  TGI: > 100 µM
ACHN renal
  TGI: > 100 µM
SN12C renal
  TGI: > 100 µM
OVCAR-3 ovarian
  TGI: > 100 µM
UO-31 renal
  TGI: > 100 µM
UACC-257 melanoma
  TGI: > 100 µM
LOX IMVI melanoma
  TGI: > 100 µM
SF-295 CNS
  TGI: > 100 µM
NCI-H460 lung
  TGI: > 100 µM
SNB-19 CNS
  TGI: > 100 µM
A549 NSCLC
  TGI: > 100 µM
SK-MEL-28 melanoma
  TGI: > 100 µM
HT29 colon
  TGI: > 100 µM
M14 melanoma
  TGI: > 100 µM
SF-268 CNS
  TGI: > 100 µM
SK-MEL-5 melanoma
  TGI: > 100 µM
IGROV1 ovarian
  TGI: > 100 µM
KM12 colon
  TGI: > 100 µM
DMS 273 small cell lung
  TGI: > 100 µM
SF-539 CNS
  TGI: > 100 µM
HOP-62 NSCLC
  TGI: > 100 µM
OVCAR-5 ovarian
  TGI: > 100 µM
M19-MEL melanoma
  TGI: > 100 µM
CAKI-1 renal
  TGI: > 100 µM
NCI-H226 lung
  TGI: > 100 µM
RPMI-8226 leukemia
  TGI: > 100 µM
OVCAR-4 ovarian
  TGI: > 100 µM
HCT-116 colon
  TGI: > 100 µM
TK-10 renal
  TGI: > 100 µM
MALME-3M melanoma
  TGI: > 100 µM
SK-MEL-2 melanoma
  TGI: > 100 µM
DLD-1 colon
  TGI: > 100 µM
HCC-2998 colon
  TGI: > 100 µM
EKVX NSCLC
  TGI: > 100 µM
XF 498 CNS
  TGI: > 100 µM
SNB-78 CNS
  TGI: > 100 µM
RXF 393 renal
  TGI: > 100 µM
NCI-H23 lung
  TGI: > 100 µM
DMS 114 small cell lung
  TGI: > 100 µM
OVCAR-8 ovarian
  TGI: > 100 µM
U251 CNS
  TGI: > 100 µM
HCT-15 colon
  TGI: > 100 µM
SNB-75 CNS
  TGI: > 100 µM
HL-60(TB) leukemia
  TGI: > 100 µM
SW-620 colon
  TGI: > 100 µM
SR leukemia
  TGI: > 100 µM
786-0 renal
  TGI: > 100 µM
A498 renal
  TGI: > 100 µM
K-562 leukemia
  TGI: > 100 µM
MOLT-4 leukemia
  TGI: > 100 µM
SK-OV-3 ovarian
  TGI: > 100 µM
KM20L2 colon
  TGI: > 100 µM

## CN1COc2c(n(C)c(=O)[nH]c2=O)C1
COLO 205 colon
  TGI: > 100 µM
ACHN renal
  TGI: > 100 µM
SN12C renal
  TGI: > 100 µM
OVCAR-3 ovarian
  TGI: > 100 µM
UO-31 renal
  TGI: > 100 µM
UACC-257 melanoma
  TGI: > 100 µM
SF-295 CNS
  TGI: > 100 µM
NCI-H460 lung
  TGI: > 100 µM
SNB-19 CNS
  TGI: > 100 µM
A549 NSCLC
  TGI: > 100 µM
SK-MEL-28 melanoma
  TGI: > 100 µM
HT29 colon
  TGI: > 100 µM
M14 melanoma
  TGI: > 100 µM
SF-268 CNS
  TGI: > 100 µM
SK-MEL-5 melanoma
  TGI: > 100 µM
UACC-62 melanoma
  TGI: > 100 µM
IGROV1 ovarian
  TGI: > 100 µM
KM12 colon
  TGI: > 100 µM
DMS 273 small cell lung
  TGI: > 100 µM
SF-539 CNS
  TGI: > 100 µM
HOP-62 NSCLC
  TGI: > 100 µM
OVCAR-5 ovarian
  TGI: > 100 µM
M19-MEL melanoma
  TGI: > 100 µM
CAKI-1 renal
  TGI: > 68.3 µM
NCI-H226 lung
  TGI: > 100 µM
RPMI-8226 leukemia
  TGI: 90.8 µM
OVCAR-4 ovarian
  TGI: > 100 µM
HCT-116 colon
  TGI: > 100 µM
TK-10 renal
  TGI: > 100 µM
NCI-H522 lung
  TGI: > 100 µM
MALME-3M melanoma
  TGI: > 100 µM
SK-MEL-2 melanoma
  TGI: > 100 µM
LXFL 529 NSCLC
  TGI: > 100 µM
HOP-18 NSCLC
  TGI: > 100 µM
DLD-1 colon
  TGI: > 100 µM
HCC-2998 colon
  TGI: > 100 µM
EKVX NSCLC
  TGI: > 100 µM
XF 498 CNS
  TGI: > 100 µM
SNB-78 CNS
  TGI: > 100 µM
RXF 393 renal
  TGI: 97.9 µM
NCI-H23 lung
  TGI: > 100 µM
HOP-92 NSCLC
  TGI: > 100 µM
DMS 114 small cell lung
  TGI: > 100 µM
OVCAR-8 ovarian
  TGI: > 100 µM
U251 CNS
  TGI: > 100 µM
HCT-15 colon
  TGI: > 100 µM
SNB-75 CNS
  TGI: > 100 µM
HL-60(TB) leukemia
  TGI: > 80.3 µM
SW-620 colon
  TGI: > 100 µM
SR leukemia
  TGI: > 80.6 µM
CCRF-CEM leukemia
  TGI: > 100 µM
786-0 renal
  TGI: > 100 µM
A498 renal
  TGI: > 100 µM
K-562 leukemia
  TGI: > 100 µM
MOLT-4 leukemia
  TGI: > 100 µM
SK-OV-3 ovarian
  TGI: > 100 µM
KM20L2 colon
  TGI: > 100 µM
